For test [1], the target named is T1, human recombinant P2X7 receptors (Homo sapiens, UniProt Q99572).
T1 construct: expressed in transfected cells
T1 sequence (Q99572 1-595): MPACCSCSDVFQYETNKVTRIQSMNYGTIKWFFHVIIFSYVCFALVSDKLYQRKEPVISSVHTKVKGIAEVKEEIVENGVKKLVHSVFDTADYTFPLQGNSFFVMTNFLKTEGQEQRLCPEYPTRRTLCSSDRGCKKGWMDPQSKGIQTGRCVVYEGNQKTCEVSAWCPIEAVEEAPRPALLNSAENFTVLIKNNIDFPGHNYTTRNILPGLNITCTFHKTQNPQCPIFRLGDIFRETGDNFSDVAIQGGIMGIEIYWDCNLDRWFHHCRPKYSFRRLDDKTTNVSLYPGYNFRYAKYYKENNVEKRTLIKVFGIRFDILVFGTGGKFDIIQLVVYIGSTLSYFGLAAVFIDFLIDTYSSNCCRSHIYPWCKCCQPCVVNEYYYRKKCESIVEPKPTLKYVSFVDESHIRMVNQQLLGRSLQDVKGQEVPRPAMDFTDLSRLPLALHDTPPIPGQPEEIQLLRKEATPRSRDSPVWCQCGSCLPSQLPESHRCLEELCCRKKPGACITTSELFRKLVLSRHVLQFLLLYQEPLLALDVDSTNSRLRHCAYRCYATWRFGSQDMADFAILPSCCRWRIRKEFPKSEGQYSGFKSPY
Kind of test: Ethidium Accumulation Assay 1 (HEK293 cells, ATP-induced ethidium uptake). It counts as cell-based. As to conditions: HEK293 cells expressing human P2X7; 1 mM ATP; sometimes mean of more than one measurement; read-out: Assay 1 (antagonist pIC50 for blocking ATP responses) (converted).

Test [2] deals with T1, human recombinant P2X7 receptors. Kind of test: Ethidium Accumulation Assay 2 (HEK293 cells, ATP-induced ethidium uptake). As to conditions: HEK293 cells expressing human P2X7; sometimes mean of more than one measurement; read-out: Assay 2 (antagonist pIC50 for blocking ATP responses) (converted). It counts as cell-based. The essentials: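 Stably transfected HEK293 cells expressing human P2X7 were preincubated with test antagonist 30 min at room temperature (19-21° C.), then stimulated with ATP solution (50 μM). Ethidium uptake was measured, and pIC50 values for block of ATP responses were derived by iterative curve fitting.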

SMILES strings stand for the structures.

Regarding `O=C(c1cccc(C(F)(F)F)c1Cl)N1CCn2c(nnc2-c2cccnn2)C1` [Example 44, 7-{[2-chloro-3-(trifluoromethyl)phenyl]carbonyl}-3-(3-pyridazinyl)-5,6,7,8-tetrahydro[1,2,4]triazolo [4,3-a]pyrazine], the IC50 in test [1] and in test [2] was less than 100 nM each time.

As for `O=C(c1cccc(C(F)(F)F)c1Cl)N1CCn2cnnc2C1` [Example 3, 7-{[2-chloro-3-(trifluoromethyl)phenyl]carbonyl}-5,6,7,8-tetrahydro[1,2,4]triazolo [4,3-a]pyrazine], the IC50 in test [1] and in test [2] was less than 501 nM in each case.

For `O=C(c1ccc(Cl)c(F)c1Cl)N1CCn2c(nnc2-c2cnccn2)C1` [Example 111, 7-[(2,4-Dichloro-3-fluorophenyl)carbonyl]-3-(2-pyrazinyl)-5,6,7,8-tetrahydro[1,2,4]triazolo[4,3-a]pyrazine], the IC50 in test [1] and in test [2] was less than 10 nM throughout.

`CCc1nnc2n1CCN(C(=O)c1cccc(C(F)(F)F)c1Cl)C2` [Example 4, 7-{[2-chloro-3-(trifluoromethyl)phenyl]carbonyl}-3-ethyl-5,6,7,8-tetrahydro[1,2,4]triazolo [4,3-a]pyrazine]: the IC50 in test [1] and in test [2] was less than 100 nM in each case.

Turning to `O=C(c1ccc(F)cc1Cl)N1CCn2c(nnc2-c2cccc(Cl)c2)C1` [Example 126, 7-[(2-chloro-4-fluorophenyl)carbonyl]-3-(3-chlorophenyl)-5,6,7,8-tetrahydro[1,2,4]triazolo[4,3-a]pyrazine], the IC50 in test [1] and in test [2] was less than 100 nM each time.

As to `Cc1nnc2n1CCN(C(=O)c1cccc(C(F)(F)F)c1Cl)C2` [Example 15, 7-{[2-Chloro-3-(trifluoromethyl)phenyl]carbonyl}-3-methyl-5,6,7,8-tetrahydro[1,2,4]triazolo[4,3-a]pyrazine], the IC50 in test [1] is less than 100 nM; in test [2] it was less than 501 nM.
